Measured values from US8394969B2, “Cyclic benzimidazole derivatives useful as anti-diabetic agents” (Merck Sharp & Dohme Corp., priority 2008, dated 2013).
Counter-ions that a name gives are not always drawn.

biological target: recombinant human AMPK complex 1 (containing α1β1γ1) (Homo sapiens, UniProt Q13131+Q9Y478); assay: […] (in vitro AMPK activation assay); format: biochemical; conditions: not given
Sequence (Q13131 whole entry): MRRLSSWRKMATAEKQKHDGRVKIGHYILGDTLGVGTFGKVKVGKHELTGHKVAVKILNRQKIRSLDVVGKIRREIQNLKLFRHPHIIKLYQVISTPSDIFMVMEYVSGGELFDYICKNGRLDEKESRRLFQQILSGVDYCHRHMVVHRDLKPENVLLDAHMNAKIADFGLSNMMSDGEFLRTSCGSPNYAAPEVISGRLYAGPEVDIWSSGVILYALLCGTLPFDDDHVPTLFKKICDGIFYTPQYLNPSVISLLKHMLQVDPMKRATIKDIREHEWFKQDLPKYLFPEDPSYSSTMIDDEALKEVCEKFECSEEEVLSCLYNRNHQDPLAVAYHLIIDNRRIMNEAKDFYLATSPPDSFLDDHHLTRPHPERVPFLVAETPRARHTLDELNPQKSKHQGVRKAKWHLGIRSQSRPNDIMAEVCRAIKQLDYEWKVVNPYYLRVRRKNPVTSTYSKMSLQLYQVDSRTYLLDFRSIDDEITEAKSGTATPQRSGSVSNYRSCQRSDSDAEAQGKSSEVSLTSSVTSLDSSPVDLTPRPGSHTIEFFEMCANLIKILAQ
Sequence (Q9Y478 whole entry): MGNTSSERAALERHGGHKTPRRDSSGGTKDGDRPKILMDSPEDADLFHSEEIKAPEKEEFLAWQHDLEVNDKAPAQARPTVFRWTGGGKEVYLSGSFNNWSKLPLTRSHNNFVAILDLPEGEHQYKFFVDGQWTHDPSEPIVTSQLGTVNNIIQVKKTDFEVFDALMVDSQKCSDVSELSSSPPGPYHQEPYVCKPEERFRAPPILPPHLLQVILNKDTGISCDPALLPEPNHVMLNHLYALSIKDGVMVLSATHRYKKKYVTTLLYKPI
Sequence (P54619 whole entry partner): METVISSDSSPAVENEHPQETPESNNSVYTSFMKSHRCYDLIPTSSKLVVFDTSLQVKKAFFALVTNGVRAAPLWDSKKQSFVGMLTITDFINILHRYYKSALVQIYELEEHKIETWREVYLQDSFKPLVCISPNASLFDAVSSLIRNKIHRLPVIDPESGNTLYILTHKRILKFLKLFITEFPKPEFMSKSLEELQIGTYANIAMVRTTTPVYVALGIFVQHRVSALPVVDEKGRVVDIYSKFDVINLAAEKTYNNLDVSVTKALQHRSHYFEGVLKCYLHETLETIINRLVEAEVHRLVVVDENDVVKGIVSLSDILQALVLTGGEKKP

SMILES | % Maximum AMP Activation of human AMPK Complex 1
COc1ccc(-c2cc3nc(Oc4ccc(C)c(C(=O)O)c4)[nH]c3cc2Cl)c(F)c1.N [Example 342, Ammonium 5-{[6-chloro-5-(2-fluoro-4-methoxyphenyl)-1H-benzimidazol-2-yl]oxy}-2-methylbenzoate] | greater than 80%

same assay, conditions: read-out: % Maximum AMP Activation of human AMPK Complex 1, recombinant human AMPK complex 1 (α1β1γ1); basal activity subtracted

SMILES | Emax
O=C(O)c1cccc(Oc2nc3cc(-c4ccc(-c5ccccc5)cc4)c(Cl)cc3[nH]2)c1 [Example 56, 3-(5-biphenyl-4-yl-6-chloro-1H-benzo-imidazol-2-yloxy)-benzoic acid, ammonium salt] | > 80%
Cc1ccc(Oc2nc3cc(-c4cccc(C(C)C)c4)c(Cl)cc3[nH]2)cc1C(=O)O [Example 339, Ammonium 5-{[6-chloro-5-(3-isopropylphenyl)-1H-benzimidazol-2-yl]oxy}-2-methylbenzoate] | > 80%

same assay, conditions: recombinant human AMPK complex 1 (α1β1γ1); basal activity subtracted; read-out: % Maximum AMP Activation of human AMPK Complex 1

SMILES | Emax
Cc1ccc(Oc2nc3cc(-c4ccc5[nH]cnc5c4)c(Cl)cc3[nH]2)cc1C(=O)O [Example 140, 2-(3-Carboxy-4-methyl-phenoxy)-6-chloro-1H,1′H-[5,5′]bibenzoimidazolyl-3-ium; chloride] | > 80%
COc1ccc2cc(-c3cc4nc(Oc5ccc(CC(=O)O)cc5)[nH]c4cc3Cl)ccc2c1 [Example 245, {4-[6-Chloro-5-(6-methoxy-naphthalen-2-yl)-1H-benzoimidazol-2-yloxy]-phenyl}-acetic acid] | > 80%
COc1ccc2cc(-c3cc4nc(Oc5ccc(C)c(C(=O)O)c5)[nH]c4cc3Cl)ccc2n1 [Example 146, 5-[6-Chloro-5-(2-methoxy-quinolin-6-yl)-1H-benzoimidazol-2-yloxy]-2-methyl-benzoic acid] | > 80%
COc1ccc2cc(-c3cc4nc(Oc5ccc(C)c(C(=O)O)c5)[nH]c4cc3Cl)ccc2c1 [Example 145, 5-[6-Chloro-5-(6-methoxy-naphthalen-2-yl)-1H-benzoimidazol-2-yloxy]-2-methyl-benzoic acid] | > 80%
Cc1cc(C)c(C(=O)O)cc1Oc1nc2cc(-c3ccc(-c4ccccc4)cc3)c(Cl)cc2[nH]1 [Example 208, 5-(5-Biphenyl-4-yl-6-chloro-1H-benzoimidazol-2-yloxy)-2,4-dimethyl-benzoic acid] | > 80%
Cc1ccc(Oc2nc3cc(C4=CCN(c5ncccn5)CC4)c(Cl)cc3[nH]2)cc1C(=O)O [Example 158, 2-(3-carboxy-4-methylphenoxy)-6-chloro-5-(1-pyrimidin-2-yl-1,2,3,6-tetrahydropyridin-4-yl)-1H-3,1-benzimidazol-3-ium trifluoroacetate] | > 80%
Cc1ccc(Oc2nc3cc(-c4ccc5c(c4)CCN5C(C)C)c(Cl)cc3[nH]2)cc1C(=O)O [Example 279, 5-[6-Chloro-5-(1-isopropyl-2,3-dihydro-1H-indol-5-yl)-1H-benzoimidazol-2-yloxy]-2-methyl-benzoic acid] | > 80%
COC(=O)c1cc(Oc2nc3cc(C#Cc4ccc(-c5cnco5)cc4)c(Cl)cc3[nH]2)ccc1C [Example 123, 5-[6-Chloro-5-(4-oxazol-5-yl-phenylethynyl)-1H-benzoimidazol-2-yloxy]-2-methyl-benzoic acid methyl ester] | > 80%
Cc1ccc(Oc2nc3cc(C#Cc4ccc(-c5cnc[nH]5)cc4)c(Cl)cc3[nH]2)cc1C(=O)O [Example 75, 5-{6-Chloro-5-[4-(3H-imidazol-4-yl)-phenylethynyl]-1H-benzoimidazol-2-yloxy}-2-methyl-benzoic acid] | > 80%
COC(=O)c1cc(Oc2nc3cc(-c4ccc(-c5ccc(=O)n(C(F)F)c5)cc4)c(Cl)cc3[nH]2)ccc1C [Example 163, 5-{6-Chloro-5-[4-(1-difluoromethyl-6-oxo-1,6-dihydro-pyridin-3-yl)-phenyl]-1H-benzoimidazol-2-yloxy}-2-methyl-benzoic acid methyl ester] | > 80%
Cc1ccc(Oc2nc3cc(-c4cnn(CC(C)C)c4)c(Cl)cc3[nH]2)cc1C(=O)O [Example 159, 5-[6-Chloro-5-(1-isobutyl-1H-pyrazol-4-yl)-1H-benzoimidazol-2-yloxy]-2-methyl-benzoic acid] | > 80%
Cc1ccc(Oc2nc3cc(-c4ccc5c(c4)cc(C(=O)O)n5C)c(Cl)cc3[nH]2)cc1C(=O)O [Example 275, 5-[2-(3-Carboxy-4-methyl-phenoxy)-6-chloro-1H-benzoimidazol-5-yl]-1-methyl-1H-indole-2-carboxylic acid] | > 80%
Cc1ccc(Oc2nc3cc(-c4cc5ccccc5o4)c(Cl)cc3[nH]2)cc1C(=O)O [Example 356, 5-(5-Benzofuran-2-yl-6-chloro-1H-benzoimidazol-2-yloxy)-2-methyl-benzoic acid] | > 80%
Cc1ccc(Oc2nc3cc(-c4ccc5c(c4)OCCO5)c(Cl)cc3[nH]2)cc1C(=O)O [Example 360, 5-[6-Chloro-5-(2,3-dihydro-benzo[1,4]dioxin-6-yl)-1H-benzoimidazol-2-yloxy]-2-methyl-benzoic acid] | > 80%
Cc1ccc(Oc2nc3cc(-c4ccc(-c5ccc[n+]([O-])c5)cc4)c(Cl)cc3[nH]2)cc1C(=O)O [Example 161, 5-{6-Chloro-5-[4-(1-oxy-pyridin-3-yl)-phenyl]-1H-benzoimidazol-2-yloxy}-2-methyl-benzoic acid] | > 80%
Cc1cc(Oc2nc3cc(-c4ccc5c(ccn5C)c4)c(Cl)cc3[nH]2)cc(C(=O)O)c1C [Example 311, 5-[6-Chloro-5-(1-methyl-1H-indol-5-yl)-1H-benzoimidazol-2-yloxy]-2,3-dimethyl-benzoic acid] | > 80%

SMILES | Emax
Cc1ccc(Oc2nc3cc(C#Cc4ccc(-c5nnc(O)[nH]5)cc4)c(Cl)cc3[nH]2)cc1C(=O)O [Example 77, 5-{6-Chloro-5-[4-(5-hydroxy-4H-[1,2,4]triazol-3-yl)-phenylethynyl]-1H-benzoimidazol-2-yloxy}-2-methyl-benzoic acid] | > 80%
COC(=O)c1ccc(C#Cc2cc3nc(Oc4ccc(C)c(C(=O)O)c4)[nH]c3cc2Cl)cc1 [Example 91, 5-[6-Chloro-5-(4-methoxycarbonyl-phenylethynyl)-1H-benzoimidazol-2-yloxy]-2-methyl-benzoic acid] | > 80%
CC(=O)c1ccc(-c2cc3nc(Oc4cc(C)c(C)c(C(=O)O)c4)[nH]c3cc2Cl)cc1 [Example 317, 5-[5-(4-Acetyl-phenyl)-6-chloro-1H-benzoimidazol-2-yloxy]-2,3-dimethyl-benzoic acid] | > 80%
COC(=O)Cn1nnc(-c2cccc(Oc3nc4cc(-c5ccc(-c6ccccc6)cc5)c(Cl)cc4[nH]3)c2)n1 [Example 41, {5-[3-(5-Biphenyl-4-yl-6-chloro-1H-benzoimidazol-2-yloxy)-phenyl]-tetrazol-2-yl}-acetic acid methyl ester] | > 80%
Cc1ccc(Oc2nc3cc(-c4ccc([S+](C)[O-])cc4)c(Cl)cc3[nH]2)cc1C(=O)O (centres unmarked) [Example 331, 2-(3-carboxy-4-methylphenoxy)-6-chloro-5-[4-(methylsulfinyl)phenyl]-1H-3,1-benzimidazol-3-ium formate] | > 80%
Cc1ccc(Oc2nc3cc(C#Cc4ccc(CN)cc4)c(Cl)cc3[nH]2)cc1C(=O)O [Example 72, 5-[5-(4-Aminomethyl-phenylethynyl)-6-chloro-1H-benzimidazol-2-yloxy]-2-methyl-benzoic acid] | > 80%
Cc1ccc(Oc2nc3cc(-c4ccc(CO)cc4)c(Cl)cc3[nH]2)cc1C(=O)O [Example 330, 2-(3-carboxy-4-methylphenoxy)-6-chloro-5-[4-(hydroxymethyl)phenyl]-1H-3,1-benzimidazol-3-ium trifluoroacetate] | > 80%
Cc1ccc(Oc2nc3cc(-c4ccc(-c5ccccc5)cc4)c(Cl)cc3n2CC(=O)O)cc1C(=O)O [Example 224, 5-(5-Biphenyl-1-yl-1-carboxymethyl-6-chloro-1H-benzoimidazol-2-yloxy)-2-methyl-benzoic acid] | > 80%
O=C(O)c1cc(Oc2nc3cc(-c4ccccc4O)c(Cl)cc3[nH]2)ccc1Cl [Example 59, 2-Chloro-5-[6-chloro-5-(2-hydroxy-phenyl)-1H-benzoimidazol-2-yloxy]-benzoic acid] | > 80%
Cc1cc(Oc2nc3cc(-c4ccc5c(c4)OCCN5C)c(Cl)cc3[nH]2)cc(C(=O)O)c1C [Example 312, 5-[6-Chloro-5-(4-methyl-3,4-dihydro-2H-benzo[1,4]oxazin-7-yl)-1H-benzoimidazol-2-yloxy]-2,3-dimethyl-benzoic acid] | > 80%
Cc1ccc(Oc2nc3cc(-c4cc5ccccc5s4)c(Cl)cc3[nH]2)cc1C(=O)O [Example 355, 5-(5-Benzo[b]thiophen-2-yl-6-chloro-1H-benzoimidazol-2-yloxy)-2-methyl-benzoic acid] | > 80%
Cc1ccc(Oc2nc3cc(-c4ccc(-c5ccc(C(=O)O)cc5)cc4)c(Cl)cc3[nH]2)cc1C(=O)O [Example 102, 4′-[2-(3-Carboxy-4-methyl-phenoxy)-6-chloro-1H-benzoimidazol-5-yl]-biphenyl-4-carboxylic acid] | > 80%
COC(=O)c1cc(Oc2nc3cc(-c4ccc(-c5ccc(OC)nc5)cc4)c(Cl)cc3[nH]2)cc(C)c1C [Example 314, 5-{6-Chloro-5-[4-(6-methoxy-pyridin-3-yl)-phenyl]-1H-benzoimidazol-2-yloxy}-2,3-dimethyl-benzoic acid methyl ester] | > 80%
Cc1ccc(Oc2nc3cc(C#Cc4ccc(-c5ccccn5)cc4)c(Cl)cc3[nH]2)cc1C(=O)O [Example 90, 5-[6-Chloro-5-(4-pyridin-2-yl-phenylethynyl)-1H-benzoimidazol-2-yloxy]-2-methyl-benzoic acid] | > 80%
CS(=O)(=O)NC(=O)c1cccc(Oc2nc3cc(-c4ccc(-c5ccccc5)cc4)c(Cl)cc3[nH]2)c1 [Example 225, N-[3-(5-Biphenyl-4-yl-6-chloro-1H-benzoimidazol-2-yloxy)-benzoyl]-methanesulfonamide] | > 80%

same assay, conditions: recombinant human AMPK complex 1 (α1β1γ1); read-out: EC50

SMILES | EC50
Cc1ccc(Oc2nc3cc(-c4ccc5c(ccn5C)c4)c(Cl)cc3[nH]2)cc1C(=O)O [Example 229, 5-{[6-chloro-5-(1-methyl-1H-indol-5-yl)-1H-benzimidazol-2-yl]oxy}-2-methylbenzoic acid] | 3 nM
